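Compound exposure: 48 hours, 5 concentrations, 96-well plates. GI50 = concentration required for 50% inhibition of growth. TGI: concentration producing complete growth inhibition.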
How the values were obtained:
Test in all cases: NCI tumour cell line growth inhibition, 48 h
[1] = test system: OVCAR-3 ovarian
[2] = test system: SW-620 colon
[3] = test system: NCI-H23 lung
[4] = test system: MDA-N
[5] = test system: UACC-257 melanoma
[6] = test system: SR leukemia
[7] = test system: SF-295 CNS
[8] = test system: MCF7 breast
[9] = test system: SF-539 CNS
[10] = test system: EKVX NSCLC
[11] = test system: IGROV1 ovarian
[12] = test system: NCI-H226 lung
[13] = test system: HOP-92 NSCLC
[14] = test system: MOLT-4 leukemia
[15] = test system: M14 melanoma
[16] = test system: 786-0 renal
[17] = test system: K-562 leukemia
[18] = test system: U251 CNS
[19] = test system: KM12 colon
[20] = test system: MDA-MB-435
[21] = test system: HCT-116 colon
[22] = test system: SK-MEL-5 melanoma
[23] = test system: RPMI-8226 leukemia
[24] = test system: SNB-19 CNS
[25] = test system: DU-145 prostate
[26] = test system: COLO 205 colon
[27] = test system: OVCAR-5 ovarian
[28] = test system: A549 NSCLC
[29] = test system: LOX IMVI melanoma
[30] = test system: SK-MEL-2 melanoma
[31] = test system: HL-60(TB) leukemia
[32] = test system: HCC-2998 colon
[33] = test system: SF-268 CNS
[34] = test system: HCT-15 colon
[35] = test system: NCI/ADR-RES ovarian
[36] = test system: SK-OV-3 ovarian
[37] = test system: BT-549 breast
[38] = test system: SK-MEL-28 melanoma
[39] = test system: CCRF-CEM leukemia
[40] = test system: OVCAR-8 ovarian
[41] = test system: TK-10 renal
[42] = test system: HT29 colon
[43] = test system: UACC-62 melanoma
[44] = test system: CAKI-1 renal
[45] = test system: MDA-MB-231 breast
[46] = test system: OVCAR-4 ovarian
[47] = test system: NCI-H460 lung
[48] = test system: SN12C renal
[49] = test system: PC-3 prostate
[50] = test system: UO-31 renal
[51] = test system: NCI-H522 lung
[52] = test system: HOP-62 NSCLC
[53] = test system: ACHN renal
[54] = test system: T-47D breast
[55] = test system: MALME-3M melanoma
[56] = test system: RXF 393 renal
[57] = test system: A498 renal
[58] = test system: SNB-75 CNS
[59] = test system: HS 578T breast

Cc1ccc(C(=O)N/N=C(\N=Nc2ccccc2)c2ccc(N(C)C)cc2)cc1
TGI [1]: > 100 µM
TGI [2]: > 100 µM
TGI [3]: > 100 µM
TGI [4]: > 100 µM
TGI [5]: > 100 µM
TGI [6]: > 100 µM
TGI [7]: > 100 µM
TGI [8]: > 100 µM
TGI [9]: > 100 µM
TGI [10]: > 100 µM
TGI [11]: > 100 µM
TGI [12]: > 100 µM
TGI [13]: > 100 µM
TGI [14]: > 100 µM
TGI [15]: > 100 µM
TGI [16]: > 100 µM
TGI [17]: > 100 µM
TGI [18]: > 100 µM
TGI [19]: > 100 µM
TGI [20]: > 100 µM
TGI [21]: > 100 µM
TGI [22]: > 100 µM
TGI [23]: > 100 µM
TGI [24]: > 100 µM
TGI [25]: > 100 µM
TGI [26]: > 100 µM
TGI [27]: > 100 µM
TGI [28]: > 100 µM
TGI [29]: > 100 µM
TGI [30]: > 100 µM
TGI [31]: > 100 µM
TGI [32]: > 100 µM
TGI [33]: > 100 µM
TGI [34]: > 100 µM
TGI [35]: > 100 µM
TGI [36]: > 100 µM
TGI [37]: > 100 µM
TGI [38]: > 100 µM
TGI [39]: > 100 µM
TGI [40]: > 100 µM
TGI [41]: > 100 µM
TGI [42]: > 100 µM
TGI [43]: > 100 µM
TGI [44]: > 100 µM
TGI [45]: > 100 µM
TGI [46]: > 100 µM
TGI [47]: > 100 µM
TGI [48]: > 100 µM
TGI [49]: > 100 µM
TGI [50]: > 100 µM
TGI [51]: > 100 µM

COc1ccc2cc(-c3c(-c4ccncc4)nc(-c4ccc(S(C)(=O)=O)cc4C)n3C)ccc2c1
GI50 [1]: 6.97 µM
TGI [1]: > 23.5 µM
GI50 [2]: 9.68 µM
TGI [2]: > 25 µM
GI50 [3]: 7.99 µM
TGI [3]: > 25 µM
GI50 [5]: 7.75 µM
TGI [5]: > 25 µM
GI50 [6]: 13 µM
TGI [6]: > 25 µM
GI50 [7]: 7.83 µM
TGI [7]: > 25 µM
GI50 [8]: 7.09 µM
TGI [8]: > 18.4 µM
GI50 [9]: 10.8 µM
TGI [9]: > 25 µM
GI50 [10]: 7.45 µM
TGI [10]: > 25 µM
GI50 [11]: 7.47 µM
TGI [11]: > 25 µM
GI50 [52]: 8.81 µM
TGI [52]: > 23.9 µM
GI50 [53]: 8.36 µM
TGI [53]: > 25 µM
GI50 [54]: 5.14 µM
TGI [54]: > 18.6 µM
GI50 [12]: 4.17 µM
TGI [12]: > 20.4 µM
GI50 [13]: 5.16 µM
TGI [13]: 24.4 µM
GI50 [14]: 6.91 µM
TGI [14]: > 25 µM
GI50 [55]: 4.9 µM
TGI [55]: > 25 µM
GI50 [15]: 10.1 µM
TGI [15]: > 25 µM
GI50 [16]: 11.4 µM
TGI [16]: > 25 µM
GI50 [17]: 6.88 µM
TGI [17]: > 25 µM
GI50 [18]: 11.2 µM
TGI [18]: > 25 µM
GI50 [56]: 3.99 µM
TGI [56]: 20.7 µM
GI50 [57]: 6.31 µM
TGI [57]: > 25 µM
GI50 [19]: 8.05 µM
TGI [19]: > 25 µM
GI50 [20]: 9.18 µM
TGI [20]: > 25 µM
GI50 [21]: 7.62 µM
TGI [21]: > 25 µM
GI50 [22]: 4.54 µM
TGI [22]: > 15.4 µM
GI50 [23]: 9.89 µM
TGI [23]: > 25 µM
GI50 [24]: 9.04 µM
TGI [24]: > 25 µM
GI50 [25]: 10.2 µM
TGI [25]: > 25 µM
GI50 [26]: 8.25 µM
TGI [26]: > 20.1 µM
GI50 [27]: 14.7 µM
TGI [27]: > 25 µM
GI50 [28]: 9.04 µM
TGI [28]: > 25 µM
GI50 [29]: 9.01 µM
TGI [29]: > 25 µM
GI50 [30]: 6.78 µM
TGI [30]: > 25 µM
GI50 [31]: 6.54 µM
TGI [31]: 21.7 µM
GI50 [32]: 12 µM
TGI [32]: > 25 µM
GI50 [33]: 11.1 µM
TGI [33]: > 25 µM
GI50 [58]: 6.67 µM
TGI [58]: > 25 µM
GI50 [34]: 7.97 µM
TGI [34]: > 25 µM
GI50 [35]: 8.67 µM
TGI [35]: > 25 µM
GI50 [36]: 6.5 µM
TGI [36]: 16.7 µM
GI50 [37]: 10.6 µM
TGI [37]: > 25 µM
GI50 [38]: 9.28 µM
TGI [38]: 24.9 µM
GI50 [39]: 8.46 µM
TGI [39]: > 25 µM
GI50 [40]: 9.01 µM
TGI [40]: > 25 µM
GI50 [41]: 5.82 µM
TGI [41]: 23.2 µM
GI50 [42]: 8.37 µM
TGI [42]: > 25 µM
GI50 [43]: 7.95 µM
TGI [43]: > 25 µM
GI50 [44]: 8.73 µM
TGI [44]: > 25 µM
GI50 [45]: 9.75 µM
TGI [45]: > 25 µM
GI50 [46]: 5.3 µM
TGI [46]: 22 µM
GI50 [47]: 7.77 µM
TGI [47]: > 25 µM
GI50 [59]: 5.24 µM
TGI [59]: > 25 µM
GI50 [48]: 8.22 µM
TGI [48]: > 25 µM
GI50 [49]: 8.35 µM
TGI [49]: > 25 µM
GI50 [50]: 4.4 µM
TGI [50]: 20.2 µM
GI50 [51]: 4.45 µM
TGI [51]: 19 µM

O=C1C=CC=C/C1=C1\N=C(c2ccccc2OCC(=O)c2ccccc2)SS1
TGI [1]: > 100 µM
TGI [2]: > 100 µM
TGI [3]: > 100 µM
TGI [4]: > 100 µM
TGI [5]: > 100 µM
TGI [7]: > 100 µM
TGI [8]: > 100 µM
TGI [9]: > 100 µM
TGI [10]: > 100 µM
TGI [11]: > 100 µM
TGI [52]: > 100 µM
TGI [53]: > 100 µM
TGI [12]: > 100 µM
TGI [13]: > 100 µM
TGI [14]: 47.2 µM
TGI [55]: > 100 µM
TGI [15]: > 100 µM
TGI [16]: > 100 µM
TGI [17]: > 100 µM
TGI [18]: > 100 µM
TGI [56]: > 100 µM
TGI [57]: > 100 µM
TGI [19]: > 100 µM
TGI [20]: > 100 µM
TGI [21]: > 100 µM
TGI [23]: > 100 µM
TGI [24]: > 100 µM
TGI [27]: > 100 µM
TGI [28]: > 100 µM
TGI [29]: > 100 µM
TGI [30]: > 100 µM
TGI [31]: > 100 µM
TGI [32]: > 100 µM
TGI [33]: > 100 µM
TGI [58]: 65.8 µM
TGI [34]: > 100 µM
TGI [35]: > 100 µM
TGI [36]: > 100 µM
TGI [37]: > 100 µM
TGI [38]: > 100 µM
TGI [39]: > 100 µM
TGI [40]: > 100 µM
TGI [41]: > 100 µM
TGI [42]: > 100 µM
TGI [43]: > 100 µM
TGI [44]: > 100 µM
TGI [45]: > 100 µM
TGI [46]: > 100 µM
TGI [47]: > 100 µM
TGI [59]: > 100 µM
TGI [48]: > 100 µM
TGI [50]: > 100 µM
